{"source": "patent US4801600A", "about": "“Aminomethyl oxooxazolidinyl cycloalkylbenzene derivatives useful as antibacterial agents” (E. I. Du Pont de Nemours and Company, priority 1987, dated 1989)", "key": {"Escherichia coli": {"test_system": "Escherichia coli", "test": "In vitro broth microdilution MIC, Escherichia coli", "assay_type": "cell-based", "conditions": "24-hour MIC, Mueller-Hinton broth, read-out: Minimum Inhibitory Concentration, Escherichia coli", "from_the_text": "(§1) A standard microdilution method (National Committee for Clinical Standards. Tentative standard M7-T. Standard methods for dilution antimicrobial susceptibility tests for bacteria that grow aerobically. National Committee for Clinical Laboratory Standards, Villanova, PA. 1982) with Mueller-Hinton broth is used to determine the 24-hour minimal inhibitory concentrations (MIC's) for test strains of Staphylococcus aureus and Escherichia coli."}, "Staphylococcus aureus [1]": {"test_system": "Staphylococcus aureus", "test": "In vitro broth microdilution MIC, Staphylococcus aureus", "assay_type": "cell-based", "conditions": "24-hour MIC, Mueller-Hinton broth, read-out: Minimum Inhibitory Concentration, Staphylococcus aureus", "from_the_text": "as §1"}, "Staphylococcus aureus [2]": {"test_system": "Staphylococcus aureus", "test": "Acute lethal mouse model, intraperitoneal Staphylococcus aureus infection", "assay_type": "in vivo", "conditions": "168 h, mice dosed 1 h and 4 h post-infection", "procedure": "Determinations of in vivo efficacy are performed by inoculating mice intraperitoneally with cultures of the infecting organism diluted to produce 100% of mortality in control animals within twenty-four hours. The culture of S. aureus used to infect the animals was diluted to the required bacterial density using 5% aqueous hog gastric mucin. The compounds are dissolved or suspended in 0.25% aqueous Methocal® (Methocel®: Hydroxypropyl Methylcellulose, E15 Premium, Dow Chemical Company) for oral administration or sterile distilled water containing 5% dimethylsulfoxide (Fisher Scientific Company, Fairlawn, N.J.) for subcutaneous administration. The mice are dosed at one hour and at four hours post-infection. Mortality is recorded daily until test termination seven days post infection. The number of survivors in each treatment group on the seventh day after infection is used in the calculation of the ED50, the dose of compound that protects 50% of the mice (Litchfield, J. T. and Wildoxon. A simplified method for evaluating dose-effect experiments. J. Pharmacol Exp. Ther., 96:99-113, 1949 )."}, "[3]": {"conditions": "oral, survival at day 7, read-out: ED50, Oral Administration"}, "[4]": {"conditions": "sc, subcutaneous, survival at day 7, read-out: ED50, Subcutaneous Administration"}}, "note": "Like-named read-outs stand apart in the source and are kept apart here."}
{"smiles": "CC(=O)NCC1CN(c2ccc3c(c2)CCC3O)C(=O)O1", "note": "(single isomer, unassigned) [Example 17, (l)-N-[3-(2,3-Dihydro-1-hydroxy-1H-inden-5-yl)-2-oxooxazolidin-5-ylmethyl]acetamide]", "values": [{"measurement": "MIC", "setting": "Escherichia coli", "result": "> 128", "unit": "mg/L"}, {"measurement": "MIC", "setting": "Staphylococcus aureus [1]", "result": 8, "unit": "mg/L"}, {"measurement": "ED50", "setting": "Staphylococcus aureus [2]; [3]", "result": 1.9, "unit": "mg/kg"}, {"measurement": "ED50", "setting": "Staphylococcus aureus [2]; [4]", "result": 1.8, "unit": "mg/kg"}]}
{"smiles": "CC(=O)NCC1CN(c2ccc3c(c2)CCC3=NN2CCN(C)CC2)C(=O)O1", "note": "(single isomer, unassigned) [Example 18, (l)-N-[3-[1,2-Dihydro-1-(4-methyl-1-piperazinylimino)-1H-inden-5-yl]-2-oxooxazolidin-5-ylmethyl]acetamide]", "values": [{"measurement": "MIC", "setting": "Escherichia coli", "result": "> 128", "unit": "mg/L"}, {"measurement": "MIC", "setting": "Staphylococcus aureus [1]", "result": "8 to 16", "unit": "mg/L"}, {"measurement": "ED50", "setting": "Staphylococcus aureus [2]; [3]", "result": 13.9, "unit": "mg/kg"}, {"measurement": "ED50", "setting": "Staphylococcus aureus [2]; [4]", "result": 20.3, "unit": "mg/kg"}]}
{"smiles": "CC(=O)NCC1CN(c2ccc3c(c2)CCC3)C(=O)O1", "note": "(single isomer, unassigned) [Example 1F, (l)-N-[3-(2,3-Dihydro-1H-inden-5-yl)-2-oxooxazolidin-5-ylmethyl]acetamide]", "values": [{"measurement": "MIC", "setting": "Escherichia coli", "result": "> 128", "unit": "mg/L"}, {"measurement": "MIC", "setting": "Staphylococcus aureus [1]", "result": 2, "unit": "mg/L"}, {"measurement": "ED50", "setting": "Staphylococcus aureus [2]; [3]", "result": 2.2, "unit": "mg/kg"}, {"measurement": "ED50", "setting": "Staphylococcus aureus [2]; [4]", "result": 1.7, "unit": "mg/kg"}]}
{"smiles": "CC(=O)NCC1CN(c2ccc3c(c2)CCC3=O)C(=O)O1", "note": "(single isomer, unassigned) [Example 16, (l)-N-[3-(2,3-Dihydro-1-oxo-1H-inden-5-yl)-2-oxooxazolidin-5-ylmethyl]acetamide]", "values": [{"measurement": "MIC", "setting": "Escherichia coli", "result": "> 128", "unit": "mg/L"}, {"measurement": "MIC", "setting": "Staphylococcus aureus [1]", "result": "2 to 4", "unit": "mg/L"}, {"measurement": "ED50", "setting": "Staphylococcus aureus [2]; [3]", "result": 1.6, "unit": "mg/kg"}, {"measurement": "ED50", "setting": "Staphylococcus aureus [2]; [4]", "result": 1.2, "unit": "mg/kg"}]}
